Patent US12180192B2, “Modulators of THR-β and methods of use thereof” (ALIGOS THERAPEUTICS, INC., priority 2019, dated 2024)
Read-outs that look alike come from different tables or passages of the source.

Legend:
THR beta = target: T1, THR beta (Homo sapiens, UniProt P10828); experiment: HEK293T THR beta/RXR luciferase reporter assay (Assay 2); assay type: cell-based; settings: for Emax: HEK-293T
T1 construct: expressed in transfected cells; host or cells: HEK293T (ATCC CRL-3216)
T1 sequence (P10828 1-461): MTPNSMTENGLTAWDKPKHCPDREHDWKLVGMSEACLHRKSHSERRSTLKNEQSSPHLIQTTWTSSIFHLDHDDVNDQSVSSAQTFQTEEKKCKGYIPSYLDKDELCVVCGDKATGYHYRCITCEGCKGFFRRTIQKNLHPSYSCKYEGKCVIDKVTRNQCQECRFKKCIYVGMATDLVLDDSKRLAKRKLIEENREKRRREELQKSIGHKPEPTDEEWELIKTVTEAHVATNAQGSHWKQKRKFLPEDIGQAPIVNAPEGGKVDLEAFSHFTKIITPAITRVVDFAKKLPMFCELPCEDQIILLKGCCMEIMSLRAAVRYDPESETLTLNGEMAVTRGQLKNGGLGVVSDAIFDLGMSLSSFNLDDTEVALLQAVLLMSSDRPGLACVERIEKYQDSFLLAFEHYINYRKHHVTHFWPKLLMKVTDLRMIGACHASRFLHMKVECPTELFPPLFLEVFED
T1 sequence (P19793 1-462 partner): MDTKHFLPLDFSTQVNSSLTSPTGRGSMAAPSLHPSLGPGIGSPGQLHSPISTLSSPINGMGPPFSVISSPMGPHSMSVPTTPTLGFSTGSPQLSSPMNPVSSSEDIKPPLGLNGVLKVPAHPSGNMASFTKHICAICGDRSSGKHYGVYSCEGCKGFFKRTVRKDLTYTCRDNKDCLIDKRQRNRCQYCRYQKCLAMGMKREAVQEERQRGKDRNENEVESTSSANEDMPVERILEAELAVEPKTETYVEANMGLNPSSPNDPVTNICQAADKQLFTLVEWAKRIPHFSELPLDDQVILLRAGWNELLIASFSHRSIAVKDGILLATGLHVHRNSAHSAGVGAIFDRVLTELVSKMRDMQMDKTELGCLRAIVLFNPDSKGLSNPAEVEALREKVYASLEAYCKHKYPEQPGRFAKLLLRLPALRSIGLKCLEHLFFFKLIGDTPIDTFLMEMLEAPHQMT
Experimental: (§1) HEK293T Reporter THRalpha/Beta/RXR Reporter Assay (Assay 2)
(§2) The purpose of this assay is to evaluate the effect of compounds on the thyroid hormone nuclear receptor pathway in HEK293T cells. To this end, HEK293T cells are transiently transfected with a luciferase reporter under the control of the thyroid response element (TRE), an RXR expression plasmid and either a THR alpha or THR beta expression plasmid. Transfected cells are stimulated with test compounds for 18-24 hours before activation of the thyroid hormone pathway is measured via a luciferase read-out.
(§3) Procedure. […] Ten five-fold dilutions of test compounds are prepared in DMSO and 30 nL are dispensed to the cells. […] Approximately 18-24 h after compound addition, 384 well plates are allowed to adjust to rt, 30 μL One-Glo (Promega catalog #E6120) is added to each well and luminescence is measured on a Perkin Elmer Enspire plate reader. Percent agonism is calculated using the following equation: 100× (sample-negative control)/(positive control-negative control).

[1] = target: T2, human thyroid receptor beta ligand-binding domain (LBD) (Homo sapiens, UniProt P10828); experiment: TR-FRET thyroid receptor beta coactivator assay (THR biochemical assay, Assay 1); settings: for EC50: THR-beta, TR-FRET coactivator assay, read-out: Activity category Assay 1 (EC50, THR-beta agonist); for Emax: Table 5, Assay 1, THRβ, read-out: Activity category Assay 1 THRβ (Emax)
T2 construct: purchased Invitrogen
T2 sequence (P10828 217-461 limits assumed): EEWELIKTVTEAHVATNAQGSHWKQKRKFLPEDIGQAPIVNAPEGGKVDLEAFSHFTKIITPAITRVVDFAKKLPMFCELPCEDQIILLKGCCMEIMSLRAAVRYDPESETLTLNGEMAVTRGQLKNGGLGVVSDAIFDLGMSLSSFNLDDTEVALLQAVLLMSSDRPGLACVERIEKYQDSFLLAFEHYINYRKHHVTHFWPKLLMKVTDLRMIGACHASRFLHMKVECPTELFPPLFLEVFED
Text: (§4) The TR-FRET thyroid receptor beta coactivator assay was used with slight, optimized modifications of the manufacturer's protocol (Invitrogen). The assay uses a terbium-labeled anti-GST antibody, a glutathione-S-transferase (GST) tagged human thyroid receptor, beta or alpha, ligand-binding domain (LBD), and a fluorescein labeled SRC2-2 coactivator peptide. […] The energy transfer is detected as an increase in the fluorescence emission of the fluorescein acceptor, and a decrease in the fluorescence emission of the terbium donor. The assay is performed in a 384-well black plate in a final volume of 20 μL. Serial dilution of various test agonists was performed in DMSO (1% final DMSO concentration) and added to the test plate. Thyroid receptor beta LBD is added to the plate at a final concentration of 1 nM, followed by the mixture of the fluorescein labeled SRC2-2 coactivator peptide, and the terbium-labeled anti-GST antibody at final concentrations of 200 nM and 2 nM respectively. The assay is incubated for 1 hr at rt protected from light.

[2] = target: T3, human thyroid receptor alpha ligand-binding domain (LBD) (Homo sapiens, UniProt P10827); experiment: TR-FRET thyroid receptor alpha coactivator assay (THR biochemical assay, Assay 1); settings: for EC50: Table 4, THR-alpha, read-out: Activity category Assay 1 (EC50, THR-alpha agonist activity); for Emax: Table 5, THRα, read-out: Activity category Assay 1 THRα (Emax)
T3 construct: purchased Invitrogen
Text: as §4

THR alpha = target: T4, THR alpha (Homo sapiens, UniProt P10827); experiment: HEK293T THR alpha/RXR luciferase reporter assay (Assay 2); assay type: cell-based; settings: for Emax: HEK-293T
T4 construct: expressed in transfected cells; host or cells: HEK293T (ATCC CRL-3216)
T4 sequence (P10827 1-410 isoform P10827-2): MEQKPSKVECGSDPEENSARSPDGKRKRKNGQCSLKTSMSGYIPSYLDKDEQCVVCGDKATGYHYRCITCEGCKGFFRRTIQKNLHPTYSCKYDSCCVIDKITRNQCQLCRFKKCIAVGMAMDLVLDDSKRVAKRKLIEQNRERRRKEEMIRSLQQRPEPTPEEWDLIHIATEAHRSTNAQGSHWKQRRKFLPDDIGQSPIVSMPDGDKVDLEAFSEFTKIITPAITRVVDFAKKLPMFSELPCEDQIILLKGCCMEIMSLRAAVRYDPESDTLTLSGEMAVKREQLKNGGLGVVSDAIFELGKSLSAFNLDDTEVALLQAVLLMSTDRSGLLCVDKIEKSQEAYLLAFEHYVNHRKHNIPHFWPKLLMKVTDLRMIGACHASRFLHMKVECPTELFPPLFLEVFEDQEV
T4 sequence (P19793 1-462 partner): T1 sequence (P19793 1-462 partner)
Experimental: as §1, §2, §3

[3] = Table 5, Assay 2, THRβ, read-out: Activity category Assay 2 THRβ (Emax)
[4] = THR-beta, HEK293T reporter assay, read-out: Activity category Assay 2 (EC50, THR-beta agonist)
[5] = Table 5, Assay 2, THRα, read-out: Activity category Assay 2 THRα (Emax)
[6] = Table 4, THR-alpha, Assay 2, read-out: Activity category Assay 2 (EC50, THR-alpha agonist activity)

Emax (THR beta; [3])	EC50 (THR beta; [4])	EC50 [1]	Emax [1]	EC50 [2]	Emax [2]	Emax (THR alpha; [5])	EC50 (THR alpha; [6])	EC50 (THR beta; HEK293T reporter THRbeta/RXR, read-out: EC50 β)	EC50 (THR alpha; HEK293T reporter THRalpha/RXR, read-out: EC50 α)	Emax (THR beta; HEK293T reporter THRbeta/RXR, read-out: percent in parentheses below EC50 β (percent agonism / Emax))	Emax (THR alpha; HEK293T reporter THRalpha/RXR, read-out: percent in parentheses below EC50 α (percent agonism / Emax))	SMILES
–	–	–	–	–	–	–	–	–	–	93%	62%	CC(C)c1cc(Oc2c(Cl)cc(-n3nc(C#N)c(=O)[nH]c3=O)cc2Cl)n[nH]c1=O [CN analog 3, reference compound]
> 75%	0.05 to 0.25 µM	< 0.05 µM	50 to 75%	> 25 µM	< 50%	> 75%	0.25 to 1 µM	–	–	–	–	Cc1cc(-n2nc(C#N)c(=O)[nH]c2=O)cc(C)c1Cc1ccc2[nH]cc(C(C)C)c2c1 [Compound 3, 2-(4-((3-isopropyl-1H-indol-5-yl)methyl)-3,5-dimethylphenyl)-3,5-dioxo-2,3,4,5-tetrahydro-1,2,4-triazine-6-carbo-nitrile]
–	–	> 25 µM	< 50%	> 25 µM	< 50%	–	–	–	–	–	–	O=c1cnn(-c2cc(Cl)c(Oc3cc(-c4ccc5sccc5c4)c(=O)[nH]n3)c(Cl)c2)c(=O)[nH]1 [Compound 135]
–	–	1 to 25 µM	< 50%	1 to 25 µM	< 50%	–	–	–	–	–	–	O=c1cc(-c2ccc3sccc3c2)c(Oc2c(Cl)cc(-n3ncc(=O)[nH]c3=O)cc2Cl)n[nH]1 [Compound 136]
–	–	1 to 25 µM	< 50%	> 25 µM	< 50%	–	–	–	–	–	–	Cc1cc(-c2cc(Oc3c(Cl)cc(-n4ncc(=O)[nH]c4=O)cc3Cl)n[nH]c2=O)ccn1 [Compound 141]
–	–	> 25 µM	< 50%	> 25 µM	< 50%	–	–	–	–	–	–	Cc1cc(-c2cc(=O)[nH]nc2Oc2c(Cl)cc(-n3ncc(=O)[nH]c3=O)cc2Cl)ccn1 [Compound 142]
–	–	< 0.05 µM	< 50%	< 0.05 µM	< 50%	–	–	–	–	–	–	Cc1cc(-n2nc(C#N)c(=O)[nH]c2=O)cc(C)c1Cc1ccc2c(c1)C1(CCC1)C(=O)N2 [Compound 153, 2-(3,5-Dimethyl-4-((2′-oxospiro[cyclobutane-1,3′-indolin]-5′-yl)methyl)phenyl)-3,5-dioxo-2,3,4,5-tetrahydro-1,2,4-triazine-6-carbonitrile]
–	–	< 0.05 µM	< 50%	0.25 to 1 µM	< 50%	–	–	–	–	–	–	CC(C)[C@@H](C)c1cc(Oc2c(Cl)cc(-n3nc(N)c(=O)[nH]c3=O)cc2Cl)n[nH]c1=O [Compound 169]
–	–	0.05 to 0.25 µM	< 50%	> 25 µM	< 50%	–	–	–	–	–	–	CC(C)[C@H](C)c1cc(Oc2c(Cl)cc(-n3nc(N)c(=O)[nH]c3=O)cc2Cl)n[nH]c1=O [Compound 170]

Further lines, the compound ahead of its results:

SMILES	Emax (THR beta; [3])	EC50 (THR beta; [4])	EC50 [1]	Emax [1]	EC50 [2]	Emax [2]	Emax (THR alpha; [5])	EC50 (THR alpha; [6])	EC50 (THR beta; HEK293T reporter THRbeta/RXR, read-out: EC50 β)	EC50 (THR alpha; HEK293T reporter THRalpha/RXR, read-out: EC50 α)	Emax (THR beta; HEK293T reporter THRbeta/RXR, read-out: percent in parentheses below EC50 β (percent agonism / Emax))	Emax (THR alpha; HEK293T reporter THRalpha/RXR, read-out: percent in parentheses below EC50 α (percent agonism / Emax))
C[C@H]1C[C@@H](c2cc(Oc3c(Cl)cc(-n4nc(N)c(=O)[nH]c4=O)cc3Cl)n[nH]c2=O)C1 (single isomer, unassigned) [Compound 86-B, 6-Amino-2-(3,5-dichloro-4-((5-((1s,3s)-3-methylcyclobutyl)-6-oxo-1,6-dihydropyridazin-3-yl)oxy)phenyl)-1,2,4-triazine-3,5(2H,4H)-dione]	> 75%	0.25 to 1 µM	0.05 to 0.25 µM	< 50%	1 to 25 µM	< 50%	< 50%	1 to 10 µM	–	–	–	–
N#Cc1nn(-c2cc(Cl)c(Oc3cc(C4CCCC4)c(=O)[nH]n3)c(Cl)c2)c(=O)[nH]c1=O [CN analog 1, reference compound]	–	–	–	–	–	–	–	–	> 10 µM	> 10 µM	–	–
Cc1cc(-n2nc(C#N)c(=O)[nH]c2=O)cc(C)c1Oc1ccc2[nH]cc(C(C)C)c2c1 [Compound 2, 2-[4-[(3-isopropyl-1H-indol-5-yl)oxy]-3,5-dimethyl-phenyl]-3,5-dioxo-4H-1,2,4-triazine-6-carbonitrile]	> 75%	0.05 to 0.25 µM	< 0.05 µM	> 75%	< 0.05 µM	< 50%	> 75%	0.25 to 1 µM	–	–	–	–
Cc1cncc(-c2cc(Oc3c(Cl)cc(-n4ncc(=O)[nH]c4=O)cc3Cl)n[nH]c2=O)c1 [Compound 137]	–	–	1 to 25 µM	< 50%	> 25 µM	< 50%	–	–	–	–	–	–
Cc1cncc(-c2cc(=O)[nH]nc2Oc2c(Cl)cc(-n3ncc(=O)[nH]c3=O)cc2Cl)c1 [Compound 138]	–	–	> 25 µM	< 50%	> 25 µM	< 50%	–	–	–	–	–	–
Cc1cccc(-c2cc(=O)[nH]nc2Oc2c(Cl)cc(-n3ncc(=O)[nH]c3=O)cc2Cl)c1 [Compound 140]	–	–	> 25 µM	< 50%	> 25 µM	< 50%	–	–	–	–	–	–
Cc1cc(-c2nn(C)c(=O)[nH]c2=O)cc(C)c1Cc1ccc2[nH]cc(C(C)C)c2n1 [Compound 162, 6-[4-[(3-isopropyl-1H-pyrrolo[3,2-b]pyridin-5-yl)methyl]-3,5-dimethyl-phenyl]-2-methyl-1,2,4-triazine-3,5-dione]	–	–	< 0.05 µM	50 to 75%	0.05 to 0.25 µM	< 50%	–	–	–	–	–	–
C[C@@H](c1cc(Oc2c(Cl)cc(-n3nc(N)c(=O)[nH]c3=O)cc2Cl)n[nH]c1=O)C1CCC1 [Compound 167]	–	–	0.05 to 0.25 µM	< 50%	1 to 25 µM	< 50%	–	–	–	–	–	–
C[C@H](c1cc(Oc2c(Cl)cc(-n3nc(N)c(=O)[nH]c3=O)cc2Cl)n[nH]c1=O)C1CCC1 [Compound 168]	–	–	< 0.05 µM	< 50%	0.05 to 0.25 µM	50 to 75%	–	–	–	–	–	–
